Data on 47 compounds can be found in publication PMC6835155, “Lessons from LIMK1 enzymology and their impact on inhibitor design” (Biochemical Journal, 2019).

The target of one experiment is T1, LIMK2KD (Homo sapiens, UniProt P53671).
T1 construct: The cDNA coding for LIMK2 residues 330 to 632 was PCR amplified; His6 (N, cleaved yes); made in house; host or cells: baculovirus; Sf9 for virus, TriEx insect cells for expression
The experiment in a line: Differential (dynamic) scanning fluorimetry (DSF) assay, LIMK2KD. Format: binding. As to conditions: LIMK2KD, compound 10 µM, single shot; for ΔTm at 10 µM: read-out: TM Shift LIMK2 (K).

The target in another experiment is T2, LIMK1KD (Homo sapiens, UniProt P53667).
T2 construct: His6 (N, cleaved yes); made in house; host or cells: baculovirus; Sf9 for virus, TriEx insect cells for expression
The experiment in a line: Differential (dynamic) scanning fluorimetry (DSF) assay, LIMK1KD. The experiment is classed as binding. To be noted: 2 µM LIMK1KD, compound 10 µM, single shot; for ΔTm at 10 µM: read-out: TM Shift LIMK1 (K).

Where a name gives a salt, the structure may show the parent alone.

T1 sequence (P53671 330-632): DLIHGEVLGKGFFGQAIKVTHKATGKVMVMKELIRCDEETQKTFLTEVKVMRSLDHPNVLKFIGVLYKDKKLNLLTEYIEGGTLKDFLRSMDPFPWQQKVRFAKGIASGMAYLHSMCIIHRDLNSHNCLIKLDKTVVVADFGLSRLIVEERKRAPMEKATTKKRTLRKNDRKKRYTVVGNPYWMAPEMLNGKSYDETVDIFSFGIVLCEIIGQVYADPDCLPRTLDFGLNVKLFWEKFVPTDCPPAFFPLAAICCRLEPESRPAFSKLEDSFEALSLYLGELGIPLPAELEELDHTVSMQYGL
T2 sequence (P53667 330-637): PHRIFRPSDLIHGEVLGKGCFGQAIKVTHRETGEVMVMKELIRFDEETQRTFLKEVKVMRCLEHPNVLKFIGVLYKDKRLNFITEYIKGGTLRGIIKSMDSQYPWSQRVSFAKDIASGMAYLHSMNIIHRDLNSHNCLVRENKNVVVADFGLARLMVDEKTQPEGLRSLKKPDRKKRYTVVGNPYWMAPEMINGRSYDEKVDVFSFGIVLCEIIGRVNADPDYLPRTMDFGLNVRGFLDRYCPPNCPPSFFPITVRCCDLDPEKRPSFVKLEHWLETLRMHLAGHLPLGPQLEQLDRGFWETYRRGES

`CNC(=O)CN1CCC(Oc2cc3c(Nc4cccc(Cl)c4F)ncnc3cc2OC)CC1` [AZD8931 (Sapitinib), Sapitinib]: the ΔTm at 10 µM on LIMK2KD amounted to 0.6 °C; on LIMK1KD, 0.9 °C.
The like results for `NC(=O)c1ncn([C@@H]2O[C@H](CO)[C@@H](O)[C@H]2O)c1N` [Acadesine] were, in that order, 2.1 °C and 0.7 °C.
The like results for `CCc1cc2c(cc1N1CCC(N3CCOCC3)CC1)C(C)(C)c1[nH]c3cc(C#N)ccc3c1C2=O` [Alectinib (CH5424802), Alectinib] were, in that order, 1.1 °C and -1.6 °C.
With `COc1cc(Nc2ncc3c(n2)-c2ccc(Cl)cc2C(c2c(F)cccc2OC)=NC3)ccc1C(=O)O` [Alisertib (MLN8237), Alisertib], the ΔTm at 10 µM on LIMK2KD is 1.8 °C; at LIMK1KD, -0.3 °C.
The like results for `CN1CC[C@H](c2c(O)cc(O)c3c(=O)cc(-c4ccccc4Cl)oc23)[C@H](O)C1` [Alvocidib] were, in that order, 0.5 °C and 1.9 °C.
`S=C(NCc1ccc2c(c1)OCO2)N1CCN(c2ncnc3c2oc2ccccc23)CC1` [Amuvatinib (MP-470), Amuvatinib]: the ΔTm at 10 µM at LIMK2KD is 2.3 °C; on LIMK1KD, -0.3 °C.
For `N#CC1(c2ccc(NC(=O)c3cccnc3NCc3ccncc3)cc2)CCCC1` [Apatinib] the same measures were 3.8 °C and 0.2 °C.
For `Cc1c(CN2CCN(C(=O)[C@H](C)O)CC2)sc2c(N3CCOCC3)nc(-c3cnc(N)nc3)nc12` [Apitolisib] the same measures were 0.6 °C and 1.6 °C.
Take `C[C@H]1[C@H](C)CC[C@]2(C(=O)O)CC[C@]3(C)C(=CC[C@@H]4[C@@]5(C)C[C@@H](O)[C@H](O)[C@@](C)(CO)[C@@H]5CC[C@]43C)[C@H]12` [Asiatic Acid]: the ΔTm at 10 µM at LIMK2KD is 1.7 °C; at LIMK1KD it was -0.9 °C.
`CCN1CCN(C(=O)Cc2ccc(Nc3ncc(F)c(Nc4ccc(C(=O)Nc5ccccc5Cl)cc4)n3)cc2)CC1` [Aurora A Inhibitor I]: at LIMK2KD, the “TM Shift LIMK2 (K)” value is listed as 3.7 K. Besides, at LIMK1KD, the “TM Shift LIMK1 (K)” value was 4.9 K.
In the case of `CNC(=O)c1ccccc1Sc1ccc2c(/C=C/c3ccccn3)n[nH]c2c1` [Axitinib], the results for the ΔTm at 10 µM at LIMK2KD and on LIMK1KD were -0.7 °C and 2 °C, respectively.
Regarding `Cc1ccc(S(=O)(=O)/C=C/C#N)cc1` [BAY 11-7082], at LIMK2KD, the “TM Shift LIMK2 (K)” value is 0.2 K. Also, the “TM Shift LIMK1 (K)” value on LIMK1KD is given as -0.8 K.
On to `COc1ccc(-c2ccc3ncc4c(c3c2)n(-c2ccc(N3CCNCC3)c(C(F)(F)F)c2)c(=O)n4C)cn1` [BGT226 (NVP-BGT226)], for which the ΔTm at 10 µM at LIMK2KD is -0.7 °C; at LIMK1KD, -0.1 °C.
Turning to `CC(C)CCN1c2nc(Nc3cc(F)c(O)c(F)c3)ncc2N(C)C(=O)C1C` (stereo not shown) [BI-D1870], at LIMK2KD, the “TM Shift LIMK2 (K)” value came out at 3.9 K. Further, on LIMK1KD, the “TM Shift LIMK1 (K)” value came out at 2.2 K.
Regarding `O=C1Nc2cc(Br)ccc2/C1=C1/Nc2ccccc2/C1=N\O` [BIO], at LIMK2KD, the “TM Shift LIMK2 (K)” value stood at 2.2 K. In addition, the “TM Shift LIMK1 (K)” value on LIMK1KD amounted to 0.2 K.
With `CN(C)Cc1cccc(N/C(=C2\C(=O)Nc3cc(C(N)=O)ccc32)c2ccccc2)c1` [BIX 02188], the ΔTm at 10 µM on LIMK2KD is -0.1 °C; at LIMK1KD, 1.7 °C.
Regarding `CN(C)Cc1cccc(N/C(=C2\C(=O)Nc3cc(C(=O)N(C)C)ccc32)c2ccccc2)c1` [BIX 02189], on LIMK2KD, the “TM Shift LIMK2 (K)” value worked out at 4.5 K. Besides, the “TM Shift LIMK1 (K)” value on LIMK1KD came out at 0.1 K.
On to `CCCCOc1c(C(=O)c2c(F)cc(C)cc2F)c[nH]c2nncc1-2` [BMS-265246], for which the results for the ΔTm at 10 µM at LIMK2KD and on LIMK1KD were 1.4 °C and 0.7 °C, respectively.
Turning to `Cc1ccc2nc(NCCN)c3ncc(C)n3c2c1` [BMS-345541], the ΔTm at 10 µM at LIMK2KD was found to be 2.8 °C; at LIMK1KD, 0.4 °C.
`Cc1c(NC(=O)OC[C@@H]2COCCN2)cn2ncnc(Nc3ccc4c(cnn4Cc4cccc(F)c4)c3)c12` [BMS-599626]: the “TM Shift LIMK2 (K)” value is -0.4 K on LIMK2KD (10 µM) and 0.9 K at LIMK2KD (listed as AC480 (BMS-599626), 10 µM). In addition, the ΔTm at 10 µM on LIMK1KD was 0.7 °C.
As to `CCOc1ccn(-c2ccc(F)cc2)c(=O)c1C(=O)Nc1ccc(Oc2ccnc(N)c2Cl)c(F)c1` [BMS-777607], the ΔTm at 10 µM at LIMK2KD is -0.2 °C; on LIMK1KD, 3.8 °C.
The like results for `Nc1nccc(Oc2ccc(NC(=O)c3c[nH]cc(-c4ccc(F)cc4)c3=O)cc2F)c1Cl` [BMS-794833] were, in that order, 2 °C and 1.5 °C.
For `CCn1c(C(=O)N(C2CC2)C2CC2)cc2c3c(ncn3C)c(Nc3cc(C)n(C)n3)nc21` [BMS-911543] the same measures were 0.3 °C and 1.8 °C.
For the compound `CC(C)c1cnn2c(NCc3ccccc3)cc(NCCCCCCN)nc12.Cl` [BS-181 HCl], at LIMK2KD, the “TM Shift LIMK2 (K)” value is given as 1.7 K. Besides, the “TM Shift LIMK1 (K)” value on LIMK1KD turned out to be 0.7 K.
On to `O=C(NCCCNc1nc(Nc2cccc(NC(=O)N3CCCC3)c2)ncc1I)c1cccs1` [BX-795], for which the ΔTm at 10 µM at LIMK2KD came out at 4.7 °C; on LIMK1KD it was 5 °C.
Turning to `O=C(Nc1cccc(Nc2ncc(Br)c(NCCc3cnc[nH]3)n2)c1)N1CCCC1` [BX-912], the “TM Shift LIMK2 (K)” value on LIMK2KD is given as 2.8 K. For the same compound, the “TM Shift LIMK1 (K)” value at LIMK1KD is given as 3.6 K.
Regarding `Cc1nc(NC(=O)N2CCC[C@H]2C(N)=O)sc1-c1ccnc(C(C)(C)C(F)(F)F)c1` [BYL719], the ΔTm at 10 µM on LIMK2KD was -0.2 °C; on LIMK1KD it was -0.5 °C.
The like results for `Cc1ccc(NC(=O)c2ccc(CN3CC[C@H](N(C)C)C3)c(C(F)(F)F)c2)cc1Nc1nccc(-c2cncnc2)n1` [Bafetinib] were, in that order, 1.1 °C and 2.5 °C.
For `COC(=O)[C@]12CCC(C)(C)C[C@H]1[C@H]1C(=O)C=C3[C@@]4(C)C=C(C#N)C(=O)C(C)(C)[C@@H]4CC[C@@]3(C)[C@]1(C)CC2` [Bardoxolone Methyl] the same measures were 0.8 °C and -1 °C.
On to `CCS(=O)(=O)N1CC(CC#N)(n2cc(-c3ncnc4[nH]ccc34)cn2)C1` [Baricitinib], for which the figures for the ΔTm at 10 µM at LIMK2KD and at LIMK1KD were 1 °C and 1.6 °C, respectively.
The like results for `COc1cc(Nc2c(C#N)cnc3cc(OCCCN4CCN(C)CC4)c(OC)cc23)c(Cl)cc1Cl` [Bosutinib (SKI-606), Bosutinib] were, in that order, 1.3 °C and 0.1 °C.
In the case of `Cc1cc2c(F)c(Oc3ncnn4cc(OC[C@@H](C)O)c(C)c34)ccc2[nH]1` [Brivanib (BMS-540215), Brivanib], the results for the ΔTm at 10 µM at LIMK2KD and at LIMK1KD were 0.3 °C and 0.8 °C, respectively.
The like results for `Cc1cc2c(F)c(Oc3ncnn4cc(OC[C@@H](C)OC(=O)[C@H](C)N)c(C)c34)ccc2[nH]1` [Brivanib Alaninate (BMS-582664), Brivanib Alaninate] were, in that order, 0 °C and 0.7 °C.
As to `Nc1cc(C(F)(F)F)c(-c2cc(N3CCOCC3)nc(N3CCOCC3)n2)cn1` [Buparlisib], the “TM Shift LIMK2 (K)” value on LIMK2KD (10 µM) is reported as 0.0 K; on LIMK2KD (listed as BKM120 (NVP-BKM120, Buparlisib), 10 µM), 0.7 K. The “TM Shift LIMK1 (K)” value on LIMK1KD is reported as 0.6 K; at LIMK1KD (listed as BKM120 (NVP-BKM120, Buparlisib)), -1.9 K.
With `O=C(/C=C/c1ccc(O)c(O)c1)c1ccc(O)cc1O` [Butein], the ΔTm at 10 µM at LIMK2KD is 1.9 °C; at LIMK1KD it was -0.6 °C.
As to `NC1(Cc2ccc(Cl)cc2)CCN(c2ncnc3[nH]ccc23)CC1` [CCT128930], the “TM Shift LIMK2 (K)” value on LIMK2KD is listed as 1.0 K. Also, on LIMK1KD, the “TM Shift LIMK1 (K)” value stood at 0.4 K.
With `CN(C)c1ccc(-c2nc3ncc(Cl)c(N4CCN(CC(=O)Nc5nccs5)CC4)c3[nH]2)cc1` [CCT129202], the “TM Shift LIMK2 (K)” value on LIMK2KD was 4.6 K. The “TM Shift LIMK1 (K)” value at LIMK1KD was 2.4 K.
For `Cc1cc(CN2CCN(c3c(Br)cnc4nc(-c5ccc(N6CCN(C)CC6)cc5)[nH]c34)CC2)no1` [CCT137690] the same measures were 3.5 K and 3.4 K.
On to `COc1cc2ncnc(Oc3cccc(NC(=O)Nc4cc(C(C)(C)C(F)(F)F)on4)c3)c2cc1OC` [CEP-32496], for which the ΔTm at 10 µM is -0.1 °C on LIMK2KD and -0.2 °C at LIMK1KD.
For the compound `CN1CCN(c2cccc(Nc3nc4c(-c5ccc(S(C)(=O)=O)cc5)cccn4n3)c2)CC1` [CEP-33779], the “TM Shift LIMK2 (K)” value at LIMK2KD amounted to 1.5 K. In addition, at LIMK1KD, the “TM Shift LIMK1 (K)” value is 1.0 K.
The like results for `O=C(NC(NC(=S)Nc1ccc(F)c([N+](=O)[O-])c1)C(Cl)(Cl)Cl)C(c1ccccc1)c1ccccc1` (stereo not shown) [CGK 733] were, in that order, 4.2 K and 0.7 K.
As for `CS(=O)(=O)N1CCc2c(-c3cnc(N)nc3)nc(N3CCOCC3)nc21` [CH5132799], the ΔTm at 10 µM worked out at 0.1 °C at LIMK2KD and 1.3 °C at LIMK1KD.
As to `O=c1[nH]c2ccc(Cl)cc2c(N[C@@H]2CN3CCC2CC3)c1-c1nc2ccccc2[nH]1` [CHIR-124], the “TM Shift LIMK2 (K)” value on LIMK2KD was -1.7 K. Further, on LIMK1KD, the “TM Shift LIMK1 (K)” value amounted to 2.2 K.
For `Cc1c[nH]c(-c2cnc(NCCNc3ccc(C#N)cn3)nc2-c2ccc(Cl)cc2Cl)n1` [CHIR-99021 (CT99021) HCl], the ΔTm at 10 µM at LIMK2KD is -0.3 °C; at LIMK1KD, 3.1 °C.
Take `C=CC(=O)Nc1cccc(Nc2nc(Nc3ccc(Oc4ccnc(C(=O)NC)c4)cc3)ncc2F)c1` [CNX-774]: the “TM Shift LIMK2 (K)” value on LIMK2KD was determined as 1.2 K. Also, at LIMK1KD, the “TM Shift LIMK1 (K)” value is reported as 1.6 K.
As for `C=CC(=O)Nc1cccc(Nc2nc(Nc3ccc(N4CCN(C(C)=O)CC4)cc3OC)ncc2C(F)(F)F)c1` [CO-1686 (AVL-301)], the ΔTm at 10 µM on LIMK2KD was -0.4 °C; on LIMK1KD, 0.4 °C.
With `COCCOc1ccc2c(c1)ncn2-c1ccc2cccc(N3CCC(N)CC3)c2n1` [CP-673451], the values for the ΔTm at 10 µM at LIMK2KD and at LIMK1KD were 1.9 °C and 0.9 °C, respectively.
